# Target: T1, Recombinant human HSD17B13 enzyme (Homo sapiens, UniProt Q7Z5P4)
# T1 sequence (Q7Z5P4 20-300): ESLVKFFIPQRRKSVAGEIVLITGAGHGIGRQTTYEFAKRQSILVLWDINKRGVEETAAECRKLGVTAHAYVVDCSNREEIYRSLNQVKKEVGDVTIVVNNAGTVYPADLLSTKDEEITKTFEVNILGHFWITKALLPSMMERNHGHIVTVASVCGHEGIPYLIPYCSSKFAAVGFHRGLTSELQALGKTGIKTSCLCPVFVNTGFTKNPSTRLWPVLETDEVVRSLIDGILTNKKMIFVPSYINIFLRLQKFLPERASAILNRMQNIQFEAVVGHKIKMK
# Assay: HSD17b13 NAD(P)H-Glo biochemical assay
# Details: 50 μM estradiol, 1 mM NAD+, 37° C. for 3 hours; read-out: HSD17β13 IC50
# Protocol: Example B-1: HSD17b13 NAD (P) H-Glo Biochemical Assay
# Recombinant human HSD17B13 enzyme. Substrate: estradiol (Sigma β-Estradiol E8875), 100 mM in DMSO. Cofactor: NAD+ Grade I free acid (Sigma 10127965001), 20 mM in H2O. Assay buffer final concentration: 20 mM Tris pH7.4 with 0.002% Tween-20 and 0.02% BSA. Assay performed in 384 well solid bottom plate (Corning 3570). Enzymatic activity detected by NAD (P) H-Glo™ Detection System (Promega G9062).
# Inhibitor compounds were serially diluted in DMSO and then further diluted in assay buffer to a 10× concentration consisting of 1% DMSO.
# HSD17b13 enzyme was diluted in 1× assay buffer to the desired enzyme concentration based on the specific activity of the enzyme lot. 20 μL of diluted enzyme was added to each well along with 2.5 μL of 10× inhibitor solution. Assay plate was incubated at RT for 20 minutes, and then 2.5 μL of a 10× substrate/cofactor mix was added to each well for a final concentration of 50 μM estradiol and 1 mM NAD+. Assay plate was incubated at 37° C. for 3 hours. NAD (P) H-Glo™ Detection System reagents were prepared according to manufacturer's specifications, and 25 μL was added to each well. After incubating for 1 hour at RT, luminescence was measured.
row,SMILES,IC50 [nM]
1,"Cc1nn(-c2cc(C(F)(F)F)cc(O)c2F)c2ccc(N3CCN(S(C)(=O)=O)C[C@H]3Cc3ccccc3)cc12 [Compound 2.28, (R)-3-(5-(2-Benzyl-4-(methylsulfonyl)piperazin-1-yl)-3-methyl-1H-indazol-1-yl)-2-fluoro-5-(trifluoromethyl)phenol]",≤ 100
2,"COc1ccc(C[C@@H]2COCCN2c2ncc3c(-c4cc(C(F)(F)F)c(F)c(O)c4F)nn(C)c3n2)cc1 [Compound 5.28, (R)-2,6-Difluoro-3-(6-(3-(4-methoxybenzyl)morpholino)-1-methyl-1H-pyrazolo[3,4-d]pyrimidin-3-yl)-5-(trifluoromethyl)phenol]",≤ 100
3,"Cc1nn(-c2cc(C(F)(F)F)c(Cl)c(O)c2F)c2ccc(N3CCN(S(C)(=O)=O)C[C@H]3Cc3ccccc3)cc12 [Compound 2.27, (R)-3-(5-(2-Benzyl-4-(methylsulfonyl)piperazin-1-yl)-3-methyl-1H-indazol-1-yl)-6-chloro-2-fluoro-5-(trifluoromethyl)phenol]",≤ 100
4,"CS(=O)(=O)N1CCN(c2ncc3c(-c4cc(C(F)(F)F)c(F)c(O)c4F)n[nH]c3n2)C[C@@H]1Cc1ccccc1 [Compound 5.22, (S)-3-(6-(3-Benzyl-4-(methylsulfonyl)piperazin-1-yl)-1H-pyrazolo[3,4-d]pyrimidin-3-yl)-2,6-difluoro-5-(trifluoromethyl)phenol]",≤ 100
5,"CS(=O)(=O)N1CCN(c2ncc3c(n2)c(Cl)nn3-c2cc(C(F)(F)F)c(F)c(O)c2F)[C@H](Cc2ccccc2)C1 [Compound 2.18, (R)-3-(5-(2-Benzyl-4-(methylsulfonyl)piperazin-1-yl)-3-chloro-1H-pyrazolo[4,3-d]pyrimidin-1-yl)-2,6-difluoro-5-(trifluoromethyl)phenol]",≤ 100
6,"Cc1nn(-c2cc(C(F)(F)F)c(Cl)c(O)c2F)c2cnc(N3CCN(S(C)(=O)=O)C[C@H]3Cc3ccccc3)nc12 [Compound 2.21, (R)-3-(5-(2-Benzyl-4-(methylsulfonyl)piperazin-1-yl)-3-methyl-1H-pyrazolo[4,3-d]pyrimidin-1-yl)-6-chloro-2-fluoro-5-(trifluoromethyl)phenol]",≤ 100
7,"Cn1nc(-c2cc(C(F)(F)F)c(F)c(O)c2F)c2cnc(N3CCNC[C@H]3Cc3ccccc3)nc21 [Compound 5.31, (R)-3-(6-(2-Benzylpiperazin-1-yl)-1-methyl-1H-pyrazolo[3,4-d]pyrimidin-3-yl)-2,6-difluoro-5-(trifluoromethyl)phenol]",≤ 100
8,"Oc1c(F)cc2nnn(-c3ccc(N4CC[C@H](Cc5ccccc5)C4)cc3)c2c1F [Compound 1.07, (S)-1-(4-(3-Benzylpyrrolidin-1-yl)phenyl)-5,7-difluoro-1H-benzo[d][1,2,3]triazol-6-ol]",≤ 100
9,"Cn1nc(-c2cc(C(F)(F)F)c(F)c(O)c2F)c2cnc(N3CCC(O)(Cn4cccn4)CC3)nc21 [Compound 5.04, 4-((1H-Pyrazol-1-yl)methyl)-1-(3-(2,4-difluoro-3-hydroxy-5-(trifluoromethyl)phenyl)-1-methyl-1H-pyrazolo[3,4-d]pyrimidin-6-yl)piperidin-4-ol]",≤ 100
10,"Cc1ccc(C[C@@H]2COCCN2c2ncc3c(-c4cc(C(F)(F)F)c(F)c(O)c4F)nn(C)c3n2)cc1 [Compound 5.21, (R)-2,6-Difluoro-3-(1-methyl-6-(3-(4-methylbenzyl)morpholino)-1H-pyrazolo[3,4-d]pyrimidin-3-yl)-5-(trifluoromethyl)phenol]",≤ 100
11,"Cn1nc(-c2cc(C(F)(F)F)c(F)c(O)c2F)c2cnc(N3CCN(S(C)(=O)=O)C[C@@H]3CC3CCCCC3)nc21 (single isomer, unassigned) [Compound 15.01]",≤ 100
12,"Cn1nc(-c2cc(C(F)(F)F)c(F)c(O)c2F)c2cnc(N3CCC(O)(CN4CCOCC4)CC3)nc21 [Compound 5.05, 1-(3-(2,4-Difluoro-3-hydroxy-5-(trifluoromethyl)phenyl)-1-methyl-1H-pyrazolo[3,4-d]pyrimidin-6-yl)-4-(morpholinomethyl)piperidin-4-ol]",100 to 1000
13,"COC(=O)N1CCN(c2ncc3c(-c4cc(C(F)(F)F)c(F)c(O)c4F)nn(C)c3n2)C[C@@H]1Cc1ccccc1 [Compound 6.08, Methyl (S)-2-benzyl-4-(3-(2,4-difluoro-3-hydroxy-5-(trifluoromethyl)phenyl)-1-methyl-1H-pyrazolo[3,4-d]pyrimidin-6-yl)piperazine-1-carboxylate]",≤ 100
14,"Cc1nn(-c2ccc(F)c(O)c2F)c2cnc(N3CCN(S(C)(=O)=O)C[C@H]3Cc3ccccc3)cc12 [Compound 2.15, (R)-3-(5-(2-Benzyl-4-(methylsulfonyl)piperazin-1-yl)-3-methyl-1H-pyrazolo[3,4-c]pyridin-1-yl)-2,6-difluorophenol]",≤ 100
15,"Cn1nc(-c2cc(C(F)(F)F)c(F)c(O)c2F)c2cnc(N3CCN(S(C)(=O)=O)[C@@H](Cc4ccccc4)C3)nc21 [Compound 5.14, (S)-3-(6-(3-Benzyl-4-(methylsulfonyl)piperazin-1-yl)-1-methyl-1H-pyrazolo[3,4-d]pyrimidin-3-yl)-2,6-difluoro-5-(trifluoromethyl)phenol]",≤ 100
16,"Oc1c(F)cc2nnn(-c3ccc(N4CCO[C@@H](Cc5ccccc5)C4)cc3)c2c1F [Compound 1.04, (S)-1-(4-(2-Benzylmorpholino)phenyl)-5,7-difluoro-1H-benzo[d][1,2,3]triazol-6-ol]",100 to 1000
17,"CNc1nn(-c2cc(C(F)(F)F)c(F)c(O)c2F)c2ccc(N3CCN(S(C)(=O)=O)C[C@H]3Cc3ccccc3)cc12 [Compound 2.14, (R)-3-(5-(2-Benzyl-4-(methylsulfonyl)piperazin-1-yl)-3-(methylamino)-1H-indazol-1-yl)-2,6-difluoro-5-(trifluoromethyl)phenol]",≤ 100
18,"CNc1nn(-c2cc(C(F)(F)F)c(F)c(O)c2F)c2cnc(N3CCN(S(C)(=O)=O)C[C@H]3Cc3ccccc3)cc12 [Compound 2.24, (R)-3-(5-(2-Benzyl-4-(methylsulfonyl)piperazin-1-yl)-3-(methylamino)-1H-pyrazolo[3,4-c]pyridin-1-yl)-2,6-difluoro-5-(trifluoromethyl)phenol]",≤ 100
19,"CS(=O)(=O)N1CCN(c2ccc(-n3nnc4cc(F)c(O)c(F)c43)cc2)[C@@H](Cc2ccccc2)C1 [Compound 1.01, (S)-1-(4-(2-Benzyl-4-(methylsulfonyl)piperazin-1-yl)phenyl)-5,7-difluoro-1H-benzo[d][1,2,3]triazol-6-ol]",100 to 1000
20,"Cc1nn(-c2cc(C(F)(F)F)c(F)c(O)c2F)c2cnc(N3CCN(S(C)(=O)=O)[C@@H](Cc4ccccc4)C3)cc12 [Compound 2.10, (S)-3-(5-(3-Benzyl-4-(methylsulfonyl)piperazin-1-yl)-3-methyl-1H-pyrazolo[3,4-c]pyridin-1-yl)-2,6-difluoro-5-(trifluoromethyl)phenol]",≤ 100
21,"Cc1nn(-c2cc(C(F)(F)F)c(F)c(O)c2F)c2cnc(N3CCN(S(C)(=O)=O)[C@H](Cc4ccccc4)C3)cc12 [Compound 2.07, (R)-3-(5-(3-Benzyl-4-(methylsulfonyl)piperazin-1-yl)-3-methyl-1H-pyrazolo[3,4-c]pyridin-1-yl)-2,6-difluoro-5-(trifluoromethyl)phenol]",≤ 100
22,"Oc1c(F)cc2nnn(-c3ccc(N4CCC(Cc5ccccc5)CC4)cc3)c2c1F [Compound 1.08, 1-(4-(4-Benzylpiperidin-1-yl)phenyl)-5,7-difluoro-1H-benzo[d][1,2,3]triazol-6-ol]",≤ 100

# Reference: patent US20240368127A1, “HSD17B13 INHIBITORS AND USES THEREOF” (FL2022-001, Inc., priority 2021, published 2024)
